The source of these data is patent publication US20100159093A1, “METHOD OF TREATING FOODSTUFF” (priority 2008, published 2010).

The subject of test [1] is bacteria producing phospholipase. Put plainly: Number of phospholipase-producing bacteria (aerobic cultivation) in raw milk under nitrogen gas. Type of test: cell-based. On the procedure: (§1) With the device shown in FIG. 1, the effect of nitrogen gas on the natural microflora in raw milk (volume approximately 125 ml) was examined by replacing the air (control) in an open vessel (volume approximately 250 ml) at a constant temperature, with a flow-through of 100% nitrogen gas (purity 99.999%, manufacturer AGA) at two different flow-through rates: N1=120 ml/min, N2=40 ml/min.
(§2) The temperature of the raw milk in the sample bottles was adjusted by means of the thermostat (14) of the water bath to bring the temperature of the milk to 6.0° C., 7.0° C. or 12.0° C. The temperature variation in the vessel was less than ±0.1° C.
(§3) The effect of nitrogen gas on the growth of the microflora in a raw milk sample at 12.0° C. Two flow-through rates of the nitrogen gas were used in the study: (▴) 40 ml/min and ([…]) 120 ml/min. […] The following bacterial levels were determined in the samples:
FIGS. 7A-C show the effect, in three different samples of raw milk (samples A, B and C), of nitrogen gas at 6.0° C. on the number of the bacteria which produce phospholipase. Two flow-through rates of the nitrogen gas were used in the study: (▴) 40 ml/min, i.e. the N2 environment, and ([…]) 120 ml/min, i.e. the N1 environment.

Test [2] concerns anaerobically cultivated phospholipase-producing bacteria. Put plainly: Number of anaerobically cultivated phospholipase-producing bacteria in raw milk under nitrogen gas. Type of test: cell-based. To be noted: 12.0° C., FIG. 5K. On the procedure:
(§4) With the device shown in FIG. 1, the effect of nitrogen gas on the natural microflora in raw milk (volume approximately 125 ml) was examined by replacing the air (control) in an open vessel (volume approximately 250 ml) at a constant temperature, with a flow-through of 100% nitrogen gas (purity 99.999%, manufacturer AGA) at two different flow-through rates: N1=120 ml/min, N2=40 ml/min. The temperature of the raw milk in the sample bottles was adjusted by means of the thermostat (14) of the water bath to bring the temperature of the milk to 6.0° C., 7.0° C. or 12.0° C. The temperature variation in the vessel was less than ±0.1° C. The effect of nitrogen gas on the growth of the microflora in a raw milk sample at 12.0° C. Two flow-through rates of the nitrogen gas were used in the study: (▴) 40 ml/min and ([…]) 120 ml/min. […] The following bacterial levels were determined in the samples: FIG. 5A: Total bacteria count (p.m.y./ml) FIG. 5B: Total number of psychrotrophs (p.m.y./ml) FIG. 5C: Total number of proteolytic bacteria (p.m.y./ml) FIG. 5D: Total number of lipolytic bacteria (p.m.y./ml) FIG. 5E: Total number of bacteria producing phospholipase (p.m.y./ml). […]

The subject of the next test is anaerobic microbes. Put plainly: Growth of anaerobically cultivated bacteria in raw milk under nitrogen gas. The format is cell-based. To be noted: 12.0° C., N1 environment (120 ml/min), Example 5, FIG. 5H. On the procedure:
as §4

The subject of test [3] is aerobic spores, such as B. cereus. Put plainly: Aerobic spore count in raw milk under nitrogen gas. Type of test: cell-based. Particulars: 12.0° C., N1 environment (120 ml/min), Example 5, FIG. 5F. Here is the method:
as §1, §2, §3
(§5) FIG. 5A: Total bacteria count (p.m.y./ml) FIG. 5B: Total number of psychrotrophs (p.m.y./ml) FIG. 5C: Total number of proteolytic bacteria (p.m.y./ml) FIG. 5D: Total number of lipolytic bacteria (p.m.y./ml) FIG. 5E: Total number of bacteria producing phospholipase (p.m.y./ml). […]

For test [4], the system named is anaerobic spores, such as C. tyrobutyricum. Put plainly: Anaerobic spore count in raw milk under nitrogen gas. Type of test: cell-based. Particulars: 12.0° C., N1 environment (120 ml/min), Example 5, FIG. 5L. Here is the method: as §1, §2, §3, §5
The test system of the next test is haemolytic bacteria. Put plainly: Number of haemolytic bacteria in raw milk (blood culture dishes) under nitrogen gas. Particulars: 12.0° C., following four days of treatment. Type of test: cell-based.
Source text: It is possible to measure the effectiveness of nitrogen gas for preventing growth of phospholipase for instance as a difference in the number of haemolytic microbes in the foodstuff or foodstuff material, which is an indication of the growth-preventing effect of the nitrogen gas, which effect is directed at the microbes, which produce phospholipase-transmitted virulence factors (see Example 6 below).
as §1
Two flow-through rates of the nitrogen gas were used in the study: (grey) 40 ml/min and (black) 120 ml/min.

A further test deals with Bacillus cereus. Put plainly: Number of Bacillus cereus bacteria in raw milk (MYP dish) under nitrogen gas. Type of test: cell-based. To be noted: 6.0° C., N2 environment (40 ml/min), after 7 days. On the procedure:
as §1
Two flow-through rates of the nitrogen gas were used in the study; (N2) 40 ml/min and (N1) 120 ml/min.

The next test deals with four Pseudomonas strains. To be noted: 15° C., Eyles et al.; cited from earlier work.
In test [5] the test system is psychrotrophs in raw milk. To be noted: 7° C., closed system, Dechemi et al.; cited from earlier work.

The structures appear in SMILES notation.

For `N#N` [nitrogen gas], in [1] (6° C., N1 environment (120 ml/min), adequately long treatment period, three raw milk samples), the “elimination of the bacteria which produce phospholipase” value was “possible to eliminate the bacteria which produce phospholipase”. Also, the “time from beginning of nitrogen gas treatment to elimination of microbes which produce phospholipase” value in test [1] (12.0° C., N1 environment (120 ml/min), Example 4 sample) was at most 96 h. Besides, the “growth of the aerobic bacteria which secrete phospholipase” value was “total prevention of growth” in test [1] (12.0° C., N1 environment (120 ml/min), Examples 4 and 5, FIG. 5E); “total prevention of growth” in [1] (12.0° C., N2 environment (40 ml/min), after 2 days, FIG. 5E). The “growth of the number of the microbes which produce phospholipase” value in test [1] (12.0° C., N2 environment (40 ml/min), Example 4 sample) is listed as “ceases in the N2 environment after 3 days”. Also, the “growth-preventing effect on phospholipase-positive bacteria” value in test [1] (at 7° C.) was “impossible to detect this effect”; in test [1] (at 12° C.), “the effect of the nitrogen gas was obvious”. Moreover, the “growth of the anaerobic bacteria which secrete phospholipase” value in [2] (N1 environment (120 ml/min)) and in test [2] (N2 environment (40 ml/min)) was “total prevention of growth” throughout. The “growth of anaerobic microbes” value in the test with anaerobic microbes was “able to delay the growth”. In addition, in test [3], the “formation (sporulation) of aerobic spores” value is “does not increase the formation (sporulation)”. Besides, the “formation (sporulation) of anaerobic spores” value in test [4] is “does not increase the formation (sporulation)”. For the same molecule, in the test on haemolytic bacteria (N1 environment (120 ml/min)), the “haemolytic microbes in the raw milk” value is “none”. Further, the “haemolytic microbes, less than in the control environment” value with haemolytic bacteria (N2 environment (40 ml/min)) worked out at 2 log-units. In addition, the “elimination of bacteria of the B. cereus type from raw milk” value in the test on Bacillus cereus is on record as “adequate for eliminating the bacteria of the B. cereus type”. Besides, the “inhibition of Pseudomonas strains” value with four Pseudomonas strains is reported as “did not establish that pure nitrogen is capable of significantly inhibiting”. The “effect of inhibiting the protease activity, among the gas alternatives tested” value in test [5] is listed as “neither the best nor the worst one”. Besides, the “preventing the growth of the microbes and inhibiting the lipase activity, among the protecting gases used” value in test [5] is “least effective”.
